We go through three molecules from patent US20050074810A1, “Method for non-invasilvely determining the relative levels of two biological substances” (priority 2001, published 2005).

Like-named read-outs stand apart in the source and are kept apart here.

A short description of data set [1]: In vitro reverse iontophoretic extraction of mannitol and sodium (Example 3, first experiment). The procedure: The anode was placed in the sub-dermal, “donor” chamber, which contained a physiological pH 7.4 buffer (25 mM Tris/TrisHCl+133 mM NaCl) to which the analyte mannitol was added.
In a first experiment, mannitol concentration was 5 mM for the first three hours of experiment and was then increased to 10 mM for a subsequent period of three hours.
(§1) To facilitate the analytical chemistry, the donor solutions were spiked with ^14C-labeled mannitol.
The cathodal (collection) chamber, which contacted the outer surface of the skin contained a 25 mM Tris/TrisHCl buffer at pH 7.4.
(§2) During the first 3-hour period, the entire content of the cathode solution was withdrawn every 60 minutes and the chamber was refilled with fresh buffer.
During the second 3-hour period, the 5 mM mannitol donor solution was replaced with 10 mM mannitol, and the cathodal chamber was then sampled every 30 minutes.

The nature of data set [2]: In vitro reverse iontophoretic extraction of mannitol and sodium (Example 3, second experiment). The procedure:
In a second experiment, performed under identical conditions to the first (see FIG. 11), mannitol concentration was 5 mM for the first three hours of experiment, it was then reduced to 3 mM for a subsequent period of one hour and then increased to 10 mM for a subsequent period of one hour.
as §2
During the second 1-hour period, the 5 mM mannitol donor solution was replaced with 3 mM mannitol, and the cathodal chamber was then sampled every 30 minutes.
During the third 1-hour period, the 3 mM mannitol donor solution was replaced with 10 mM mannitol, and the cathodal chamber was then sampled every 30 minutes.

Data set [3] can be described thus: In vitro reverse iontophoretic extraction of mannitol and sodium with varied sodium level (Example 4). The protocol:
The anode was placed in the sub-dermal, “donor” chamber, which contained a physiological pH 7.4 buffer (25 mM Tris/TrisHCl+4 mM KCl).
Both the concentration of the analyte of interest and the internal standard were modified during the experiment.
as §1
(§3) The cathodal (collection) chamber, which contacted the outer surface of the skin, contained a 25 mM Tris/TrisHCl buffer at pH 7.4.
as §2
During the final 1-hour period, the donor solution was replaced with 5 mM mannitol/ 133 mM NaCl, and the cathodal chamber was then sampled every 30 minutes.

The nature of data set [4]: In vitro reverse iontophoretic extraction of glucose and sodium (Example 5). Format: in vitro ADME, pig. The note with it: subdermal glucose 10 mM. The protocol: The anode was placed in the sub-dermal, “donor” chamber, which contained a physiological pH 7.4 buffer (25 mM Tris/TrisHCl+133 mM NaCl) to which the analyte glucose was added at a concentration of 10 mM.
To facilitate the analytical chemistry, the donor solutions were spiked with tritiated glucose.
as §3
The experimental design was identical to that in FIG. 11, with the exception that glucose spiked with tritiated glucose replaced mannitol spiked with ^14C-labeled mannitol.
During this period, the entire content of the cathode solution was withdrawn every 60 minutes and the chamber was refilled with fresh buffer.

The conditions of data set [5]: subdermal lactate 1.74 mM, ammonium 1.56 mM.
Protocol: Experiments were performed in specially-designed iontophoresis diffusion cells (Laboratory Glass Apparatus, Berkeley, Calif., USA) as represented in FIG. 7.
The anodal and cathodal chambers contacted the outer surface of the skin and contained the receptor (collection) media, respectively, 80 mM Tris/TrisHCl and 25 mM Tris+34 mM Mops (both buffered to pH 7.4).
Dermatomed pig-ear skin was clamped between the two halves of the iontophoresis cell and each chamber was filled with the appropriate solution.
The sub-dermal chamber was filled with the “donor solution which was perfused continuously at 2-3 mL/hour by means of a peristaltic pump.
A current of 0.4 mA (0.5 mA/cm^2) was passed for a total of 5 hours between the Ag/AgCl electrodes which were inserted into the anodal and cathodal chambers.
Every hour, the entire anode and cathode solutions were withdrawn and the chambers were refilled with fresh buffer.
The conditions of data set [6]: human volunteer, 0.3 mA/cm^2, 5.5 hours, 15 min samples, food ingested.
Protocol: The distance between the chambers was approximately 8 cm.
The anode was positioned in one of the cells, which was filled with a solution containing a 10 mM Tris buffer pH 8.5+100 mM NaCl.
The other (collection) chamber contained the cathode submerged in a 10 mM Tris buffer at pH 8.5.
The two electrodes were connected to a power supply (Phoresor II Auto, lomed, USA) and a current of 0.6 mA (0.3 mA/cm^2) was passed between them for a total of 5.5 hours.
The entire contents of the cathode solution were withdrawn every 15 minutes and the chamber was then refilled with fresh buffer.
Glucose in each iontophoretic sample was analyzed by high-performance anion-exchange chromatography with pulsed amperometric detection.
For data set [7] the following is noted: in vivo, 4 mA for 5 minutes, 4.5 cm^2, lithium nitrate electrolyte; cited from earlier work.
The mark [8] stands for this setting: subdermal mannitol 5 mM, 60 min.
The mark [9] stands for this setting: subdermal mannitol 5 mM, 120 min.
Setting [10] is: subdermal mannitol 5 mM, 180 min.
Setting [11] is: subdermal mannitol 10 mM, 270 min.
Where [12] appears, read: subdermal mannitol 10 mM, 300 min.

On to `[Na+]` [Na^+, sodium], for which the “Sodium^+ flux” value in data set [1] (setting [8]) was found to be 7.9 ± 0.5 μmol · h^−1 · cm^−2; in data set [1] (setting [9]), 9.7 ± 0.6 μmol · h^−1 · cm^−2; in data set [1] (setting [10]), 10.1 ± 0.4 μmol · h^−1 · cm^−2; in data set [1] (subdermal mannitol 10 mM, 210 min) it was 10.3 ± 0.5 μmol · h^−1 · cm^−2; in data set [1] (subdermal mannitol 10 mM, 240 min), 10.4 ± 0.6 μmol · h^−1 · cm^−2; in data set [1] (setting [11]) it was 10.3 ± 0.4 μmol · h^−1 · cm^−2. The “Sodium^+ flux” value in data set [1] (setting [12]) was 10.6 ± 0.3 μmol · h^−1 · cm^−2; in data set [1] (subdermal mannitol 10 mM, 330 min), 10.7 ± 0.3 μmol · h^−1 · cm^−2; in data set [1] (subdermal mannitol 10 mM, 360 min) it was 10.5 ± 0.6 μmol · h^−1 · cm^−2; in data set [2] (subdermal mannitol 3 mM, 210 min), 10.9 ± 0.7 μmol · h^−1 · cm^−2; in data set [2] (subdermal mannitol 3 mM, 240 min), 9.7 ± 0.5 μmol · h^−1 · cm^−2; in data set [2] (setting [8]), 8.8 ± 0.7 μmol · h^−1 · cm^−2. Moreover, the “Sodium^+ flux” value in data set [2] (setting [9]) is 10.2 ± 0.7 μmol · h^−1 · cm^−2; in data set [2] (setting [10]), 10.4 ± 0.7 μmol · h^−1 · cm^−2; in data set [2] (setting [11]), 9.4 ± 0.6 μmol · h^−1 · cm^−2; in data set [2] (setting [12]), 9.3 ± 0.4 μmol · h^−1 · cm^−2; in data set [3] (subdermal [Mannitol]/[Na^+] 5/133 mM (last hour), 330 min), 11.2 ± 1.2 μmol · h^−1 · cm^−2; in data set [3] (subdermal [Mannitol]/[Na^+] 5/133 mM (last hour), 360 min), 11.4 ± 0.3 μmol · h^−1 · cm^−2. Besides, the “Sodium^+ flux” value came out at 8.4 ± 0.8 μmol · h^−1 · cm^−2 in data set [3] (subdermal [Mannitol]/[Na^+] 5/133 mM, 60 min); 10.7 ± 0.4 μmol · h^−1 · cm^−2 in data set [3] (subdermal [Mannitol]/[Na^+] 5/133 mM, 120 min); 11.0 ± 0.3 μmol · h^−1 · cm^−2 in data set [3] (subdermal [Mannitol]/[Na^+] 5/133 mM, 180 min); 8.7 ± 0.6 μmol · h^−1 · cm^−2 in data set [4] (60 min); 9.8 ± 0.4 μmol · h^−1 · cm^−2 in data set [4] (120 min); 10.1 ± 0.3 μmol · h^−1 · cm^−2 in data set [4] (180 min). For the same molecule, the “Sodium^+ flux” value in data set [4] (240 min) is reported as 10.0 ± 0.3 μmol · h^−1 · cm^−2; in data set [4] (300 min), 10.2 ± 0.3 μmol · h^−1 · cm^−2; in data set [4] (360 min) it was 10.2 ± 0.3 μmol · h^−1 · cm^−2. For the same molecule, the “Deduced transport number (×100)” value is on record as 67.72 ± 7.98 ×100 in data set [5] (3 h) and 72.07 ± 1.07 ×100 in data set [5] (5 h). Also, the “Iontophoretically extracted flux over the experiment” value in data set [6] was “remained effectively constant”. Also, in data set [7], the “Concentration in the cathode chamber after current passage” value is on record as around 35 μEq/L.
As to `CC(O)C(=O)O` (stereo not shown) [Lactate, lactate], in data set [5] (3 h), the “Deduced transport number (×100)” value is reported as 0.59 ± 0.08 ×100; the “Extracted flux ratio (×10^3) relative to K^+” value is listed as 149 ± 3.3 ×10^3; the “Extracted flux ratio (×10^3) relative to Na^+” value is recorded as 8.7 ± 0.1 ×10^3; the “K for analyte/internal standard couple, internal standard Na^+” value is listed as 0.66 ± 0.01. Also, in data set [5] (5 h), the “Deduced transport number (×100)” value is given as 0.56 ± 0.07 ×100; the “Extracted flux ratio (×10^3) relative to K^+” value is 138 ± 15 ×10^3; the “Extracted flux ratio (×10^3) relative to Na^+” value is 7.8 ± 1.1 ×10^3; the “K for analyte/internal standard couple, internal standard Na^+” value stood at 0.60 ± 0.08.
For `[K+]` [K^+, potassium], the “Concentration in the cathode chamber after current passage” value in data set [7] is on record as “about 14 μEq/L”.
